In patent US20140357713A1, “ANTIMICROBIAL COMPOUNDS AND METHODS OF USE” (NexMed Holdings, Inc., priority 2012, published 2014):
Where a name gives a salt, the structure may show the parent alone. Read-outs that look alike come from different tables or passages of the source.

Columns and labels:
[1] = test system: Candida albicans (ATCC 90029); test: Minimum inhibitory concentration (MIC) assay, Example 33; assay type: cell-based; details: Candida albicans
In short: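 Broth microdilution per CLSI guidelines in RPMI 1640; inoculum set to OD530 0.08–0.13, diluted 1:50 then 1:20 to 2× strength and mixed 1:2 with 2-fold serial compound dilutions. Incubated at 35° C; MIC read per CLSI.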

[2] = test system: Enterobacter aerogenes (ATCC 13048); test: MIC assay with different strains, Example 35; assay type: cell-based
Procedure: (§1) The minimum inhibitory concentration (MIC) is used to determine the lowest concentration of a test product claiming antimicrobial effects that will inhibit growth of a microorganism. Each microbial suspension was adjusted approximately 10^7 to 10^8 colony forming units (CFU) per mL and labeled as the stock suspension. The stock suspension was further diluted to 1:200 in Mueller Hinton broth to obtain a test sample having a concentration of […]. The test sample was then tested for MIC as described in M202.R02. After incubation, each tube was examined for turbidity, which indicated growth or no growth. For the tubes where the product rendered the media turbid, an aliquot of the media was streaked onto agar plates to confirm growth or lack of growth.

[3] = test system: Pseudomonas aeruginosa (ATCC 9027); test: MIC assay with different strains, Example 35; assay type: cell-based
Procedure: as §1

[4] = test system: Staphylococcus hominis (ATCC 27844); test: MIC assay with different strains, Example 35; assay type: cell-based
Procedure: as §1

[5] = test system: Candida albicans (ATCC 10231); test: MIC assay with different strains, Example 35; assay type: cell-based
Procedure: as §1

[6] = test system: Enterococcus faecalis (ATCC 51299); test: MIC assay with different strains, Example 35; assay type: cell-based
Procedure: as §1

[7] = pH (Table 1); assay type: physicochemical
[8] = test system: Aspergillus niger (CMCC 98003); test: Minimum inhibitory concentration (MIC) assay, Example 33; assay type: cell-based; details: Aspergillus niger
In short: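 Broth microdilution MIC per CLSI guidelines in RPMI 1640 with serial 2-fold compound dilutions. Spore suspension from sporulating colonies adjusted to OD530 0.09-0.13, diluted 1:50 as 2× inoculum and added 1:2 to drug wells; plates incubated at 35 °C and MIC read per CLSI.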

[9] = test system: Aspergillus niger (CMCC 98003); test: Time kill study, Example 33 (0 to 5 min); assay type: cell-based; details: 1×MIC
Procedure: Thirty compounds were tested for antimicrobial activity using standard procedures and standard strains for both the minimum inhibitory concentration (MIC) assay and a time kill study. Both the MIC assay and the time kill study were performed according to Clinical and Laboratory Standards Institute (CLSI) guidelines. Three bacteria strains, Escherichia coli (ATCC 25922), Pseudomonas aeruginosa (ATCC 27853), Staphulococcus aureus (ATCC 29213), and two fungus strains, Candida albicans (ATCC 90029) and Aspergillus niger (CMCC 98003), were used in the experiments.
The viable counts in Log10 CFU/mL at each time point were recorded.
Time kill studies. Strain suspensions were prepared as described above for the MIC test, and strain suspensions and compound solutions were mixed in the same volume. Samples were removed at specified times including 0 min, 30 sec, 1 min and 5 mins, were diluted in the test medium and streaked on agar. Colonies were counted after 24 to 48 hrs of incubation.
The MIC values for thirty compounds against Escherichia coli, Pseudomonas aeruginosa, Staphulococcus aureus, Candida albicans, and Aspergillus niger were recorded and are presented in Table 3 and Table 4.

[10] = ATCC90029, Table 19 summary, read-out: MIC
[11] = ATCC90029, n = 1, read-out: MIC Candida albicans
[12] = ATCC90029, n = 2, read-out: MIC Candida albicans
[13] = CMCC98003, Table 19 summary, read-out: MIC
[14] = CMCC98003, n = 1, read-out: MIC Aspergillus niger
[15] = CMCC98003, n = 2, read-out: MIC Aspergillus niger

CCCCCCCCCCCCOC(=O)C(C)N(C)C (stereo not drawn) [Nex-05, Dodecyl 2-(dimethylamino)propanoate hydrochloride]
MIC ([1]; ATCC90029, Table 19 summary): > 12500 µg/mL | MIC ([1]; ATCC90029, read-out: MIC Candida albicans, n = 1): > 12500 µg/mL | MIC ([1]; ATCC90029, read-out: MIC Candida albicans, n = 2): > 12500 µg/mL | MIC ([2]; Example 35): 1.25% | Growth/no growth ([2]; Sample Concentration 0.039%): Growth | Growth/no growth ([2]; Sample Concentration 0.078%): Growth | Growth/no growth ([2]; Sample Concentration 0.156%): Growth | Growth/no growth ([2]; Sample Concentration 0.313%): Growth | Growth/no growth ([2]; Sample Concentration 0.625%): Growth | MIC ([3]; Example 35): 1.25% | Growth/no growth ([3]; Sample Concentration 0.039%): Growth | Growth/no growth ([3]; Sample Concentration 0.078%): Growth | Growth/no growth ([3]; Sample Concentration 0.156%): Growth | Growth/no growth ([3]; Sample Concentration 0.313%): Growth | MIC ([4]; Example 35): 0.625% | Growth/no growth ([4]; Sample Concentration 0.039%): Growth | Growth/no growth ([4]; Sample Concentration 0.078%): Growth | Growth/no growth ([4]; Sample Concentration 0.156%): Growth | Growth/no growth ([4]; Sample Concentration 0.313%): Growth | MIC ([5]; Example 35): 0.313% | Growth/no growth ([5]; Sample Concentration 0.039%): Growth | Growth/no growth ([5]; Sample Concentration 0.078%): Growth | Growth/no growth ([5]; Sample Concentration 0.156%): Growth | MIC ([6]; Example 35): 0.313% | Growth/no growth ([6]; Sample Concentration 0.039%): Growth | Growth/no growth ([6]; Sample Concentration 0.078%): Growth | Growth/no growth ([6]; Sample Concentration 0.156%): Growth | pH ([7]; hydrochloride): 2.87

CCCCCCCCCCCCOC(=O)C(C)NC.Cl (stereo not drawn) [Nex-59, Dodecyl 2-(methylamino)propanoate hydrochloride]
MIC [1, 10]: 50 µg/mL | MIC [1, 11]: 25 µg/mL | MIC [1, 12]: 25 µg/mL | MIC ([2]; Example 35): 0.16% | MIC ([2]; Klebsiella aerogenes, ATCC13048, Table 19 summary, read-out: MIC): 1600 µg/mL | Growth/no growth ([2]; Sample Concentration 0.01%): Growth | Growth/no growth ([2]; Sample Concentration 0.02%): Growth | Growth/no growth ([2]; Sample Concentration 0.04%): Growth | Growth/no growth ([2]; Sample Concentration 0.08%): Growth | Growth/no growth ([2]; Sample Concentration 0.16%): No | Growth/no growth ([2]; Sample Concentration 0.32%): No | Growth/no growth ([2]; Sample Concentration 0.63%): No | Growth/no growth ([2]; Sample Concentration 1.25%): No | Growth/no growth ([2]; Sample Concentration 2.5%): No | MIC ([3]; Example 35): 0.16% | MIC ([3]; Pseudomonas aeruginosa, ATCC9027, Table 19 summary, read-out: MIC): 1600 µg/mL | Growth/no growth ([3]; Sample Concentration 0.01%): Growth | Growth/no growth ([3]; Sample Concentration 0.02%): Growth | Growth/no growth ([3]; Sample Concentration 0.04%): Growth | Growth/no growth ([3]; Sample Concentration 0.08%): Growth | MIC ([4]; Example 35): 0.02% | Growth/no growth ([4]; Sample Concentration 0.01%): Growth | Growth/no growth ([4]; Sample Concentration 0.02%): No | Growth/no growth ([4]; Sample Concentration 0.04%): No | Growth/no growth ([4]; Sample Concentration 0.08%): No | Growth/no growth ([4]; Sample Concentration 0.16%): No | Growth/no growth ([4]; Sample Concentration 0.32%): No | Growth/no growth ([4]; Sample Concentration 0.63%): No | Growth/no growth ([4]; Sample Concentration 1.25%): No | Growth/no growth ([4]; Sample Concentration 2.5%): No | MIC ([4]; Staphylococcus hominis, ATCC27844, Table 19 summary, read-out: MIC): 200 µg/mL | MIC ([5]; Candida albicans, ATCC10231, Table 19 summary, read-out: MIC): 400 µg/mL | MIC ([5]; Example 35): 0.04% | Growth/no growth ([5]; Sample Concentration 0.01%): Growth | Growth/no growth ([5]; Sample Concentration 0.02%): Growth | MIC ([6]; Enterococcus faecalis, ATCC51299, Table 19 summary, read-out: MIC): 400 µg/mL | MIC ([6]; Example 35): 0.04% | Growth/no growth ([6]; Sample Concentration 0.01%): Growth | Growth/no growth ([6]; Sample Concentration 0.02%): Growth | Growth/no growth ([6]; Sample Concentration 0.04%): No | Growth/no growth ([6]; Sample Concentration 0.08%): No | Growth/no growth ([6]; Sample Concentration 0.16%): No | Growth/no growth ([6]; Sample Concentration 0.32%): No | Growth/no growth ([6]; Sample Concentration 0.63%): No | Growth/no growth ([6]; Sample Concentration 1.25%): No | Growth/no growth ([6]; Sample Concentration 2.5%): No | pH [7]: 2.17 | MIC [8, 13]: 50 µg/mL | MIC [8, 14]: 50 µg/mL | MIC [8, 15]: 50 µg/mL | melting point: 78 to 83 °C | Viable counts, Aspergillus niger time kill study ([9]; 0.5 min): 5.30 Log10 CFU/mL | Viable counts, Aspergillus niger time kill study ([9]; 1 min): 5.33 Log10 CFU/mL | Viable counts, Aspergillus niger time kill study ([9]; 5 min): 5.18 Log10 CFU/mL | Viable counts, Aspergillus niger time kill study ([9]; time 0): 5.27 Log10 CFU/mL

CCCCCCCCCCCCOC(=O)C(C)NC(C)C.Cl (stereo not drawn) [Nex-60, Dodecyl 2-(isopropylamino)propanoate hydrochloride]
MIC [1, 10]: 12500 µg/mL | MIC [1, 11]: 12500 µg/mL | MIC [1, 12]: 12500 µg/mL | pH [7]: 2.04 | MIC [8, 13]: > 12500 µg/mL | MIC [8, 14]: > 12500 µg/mL | MIC [8, 15]: > 12500 µg/mL | melting point: 86 to 91 °C

CCCCCCCCCCCCOC(=O)C(C)NCCO.Cl (stereo not drawn) [Nex-61, Dodecyl 2-((2-hydroxyethyl)amino)propanoate hydrochloride]
MIC [1, 10]: 12.5 µg/mL | MIC [1, 11]: 12.5 µg/mL | MIC [1, 12]: 12.5 µg/mL | pH [7]: 1.50 | MIC [8, 13]: 50 µg/mL | MIC [8, 14]: 50 µg/mL | MIC [8, 15]: 25 µg/mL | melting point: 134 to 139 °C | Viable counts, Aspergillus niger time kill study ([9]; 0.5 min): 5.30 Log10 CFU/mL | Viable counts, Aspergillus niger time kill study ([9]; 1 min): 5.16 Log10 CFU/mL | Viable counts, Aspergillus niger time kill study ([9]; 5 min): 5.11 Log10 CFU/mL | Viable counts, Aspergillus niger time kill study ([9]; time 0): 5.36 Log10 CFU/mL

CCCCCCCCCCCCOC(=O)C(C)NCCN(CC)CC.Cl (stereo not drawn) [Nex-62, Dodecyl 2-((2-(diethylamino)ethyl)amino)propanoate dihydrochloride]
MIC [1, 10]: 6.25 µg/mL | MIC [1, 11]: 6.25 µg/mL | MIC [1, 12]: 6.25 µg/mL | pH [7]: 0.73 | MIC [8, 13]: 12.5 µg/mL | MIC [8, 14]: 12.5 µg/mL | MIC [8, 15]: 12.5 µg/mL | Viable counts, Aspergillus niger time kill study ([9]; 0.5 min): 5.32 Log10 CFU/mL | Viable counts, Aspergillus niger time kill study ([9]; 1 min): 5.21 Log10 CFU/mL | Viable counts, Aspergillus niger time kill study ([9]; 5 min): 5.02 Log10 CFU/mL | Viable counts, Aspergillus niger time kill study ([9]; time 0): 5.27 Log10 CFU/mL
